# Results reported in patent US20220161456A1, “S[…] PRESERVATIVE COMPOSITION COMPRISING POLYMERIC BETAINE AND CARBAMATE” (Troy Corporation, priority 2019, published 2022).
# Columns and labels:
# Experiment in all cases: EUCAST 96-well plate fungal growth inhibition (MIC)
# Type in all cases: cell-based
# [1] = tested on: Aureobasidium pullulans (ATCC #9348); design: key to growth of Aureobasidium pullulans in 96-well plates: (+) in each block indicates growth; (−) indicates no growth, i.e., the inhibitor was effective; details: for MIC: Aureobasidium pullulans ATCC 9348, 3 days at 35° C.
# Protocol: (§1) (A) 0.17 g of 60% DPAB aqueous solution (ProTek® PBT or Polymeric Betaine EP or Polymeric Betaine Technical Grade Active Ingredient Wood Preservative, Troy Chemical Corporation, Newark, N.J.) was diluted in 9.83 g ethanol by stirring to form a concentrate containing 1% DPAB.
# (§2) (B) 0.25 g of 40% IPBC solvent solution (Polyphase® AF-1, Troy Chemical Corporation, Newark, N.J.) was diluted in 9.75 g ethanol by stirring to form a concentrate containing 1% IPBC.
# (§3) (C) 21.04 g of 60% DPAB aqueous solution (ProTek® PBT or Polymeric Betaine EP or Polymeric Betaine Technical Grade Active Ingredient Wood Preservative, Troy Chemical Corporation, Newark, N.J.), 6.25 g of 40% IPBC solvent solution (Polyphase AF-1, Troy Chemical Corporation, Newark, N.J.) and 22.74 g of ethanol were mixed and stirred. The resulting concentrate contained 25% polymeric betaine and 5% IPBC. The weight ratio of polymeric betaine to IPBC was 5:1. 0.33 g of this IPBC/polymeric betaine concentrate was diluted in 9.67 g of ethanol to form a use-dilution containing about 0.83% DPAB and 0.17% IPBC.
# (§4) Solutions prepared as described above were tested in 96-well plates for their ability to inhibit fungal growth. The solutions were tested according to the EUCAST methodology as described in Rodriguez-Tudela et al. 2006 “Antifungal susceptibility testing in Aspergillus spp. according to EUCAST methodology,” the contents of which are incorporated by reference herein. The solutions were checked for inhibition against fungal organisms Aspergillus niger (ATCC #6275), Aureobasidium pullulans (ATCC #9348), Penicillium funiculosum (ATCC #11797) and Trichoderma pseudokoningii (ATCC #26801). This method is described below:
# (§5) (1) Prepared preservative test wells by adding 2 microliters of each 1% preservative solution formulation to 198 microliters of 2xRPMI-MOPS-2% Glucose in each column “1” in duplicate.
# (§6) (2) Added 100 microliters of 2xRPMI-MOPS-2% Glucose to the remaining columns.
# (§7) (3) Performed 2-fold dilutions down the columns to column “12”.
# (§8) (4) Prepared suspension of microorganisms from a 3-5 day old PDA slants by flooding slant with 1 mL deionized water and 0.1% Tween-20.
# (§9) (5) Suspension strength was determined via hemocytometer then adjusted to 1×10^6 spores/mL with sterile deionized water.
# (§10) (6) Added 100 microliters of the microorganism suspension to all wells except for sterility (−) controls containing test media. The water used to prepare the fungal suspensions was added to sterility (−) control wells.
# (§11) (7) The inoculated 96-well plates were incubated for 3 days at 35° C.
# (§12) (8) After incubation, fungal growth was evaluated by visual growth in test wells. Minimum inhibitory concentration (MIC) is recorded in ppm and defined as the lowest concentration of fungicide that produces no visual changes in turbidity in the test wells. (+) in each block indicates growth and (−) indicates no growth, i.e., the inhibitor was effective.
# (§13) (9) The experiment is only considered valid if growth is observed in the positive (+) control wells and no growth is observed in the negative control wells.
# (§14) In order to show more directly the possible synergy in the invention, the results are presented by applying the Synergy Index (S.I.). Minimal inhibitory concentration of the composition of this invention (mixture of DPAB and IPBC) are analyzed using the following equation:
# (§15) MCA=Concentration of compound A in parts per million, acting alone, which prevents fungal growth at the reference point
# (§16) MCA′=Concentration of compound A in parts per million, in the mixture, which prevents fungal growth at the reference point
# (§17) MCB=Concentration of compound B in parts per million, acting alone, which prevents fungal growth at the reference point
# (§18) MCB′=Concentration of compound B in parts per million, in the mixture, which prevents fungal growth at the reference point
# (§19) When SI is greater than 2, antagonism is indicated. […] When SI is between 0.5 and 2, the action of biocides is additive.
# [2] = tested on: Aspergillus niger (ATCC #6275); design: key to growth of Aspergillus niger in 96-well plates: (+) in each block indicates growth; (−) indicates no growth, i.e., the inhibitor was effective; details: for MIC: Aspergillus niger ATCC 6275, 3 days at 35° C.
# Protocol: as §1, §2, §3, §4, §5, §6, §7, §8, §9, §10, §11, §12, §13, §14, §15, §16, §17, §18, §19
# [3] = tested on: Trichoderma pseudokoningii (ATCC #26801); design: key to growth of Trichoderma pseudokoningii in 96-well plates: (+) in each block indicates growth; (−) indicates no growth, i.e., the inhibitor was effective; details: for MIC: Trichoderma pseudokoningii ATCC 26801, 3 days at 35° C.
# Protocol: as §1, §2, §3, §4, §5, §6, §7, §8, §9, §10, §11, §12, §13, §14, §15, §16, §17, §18, §19
Compound,MIC [1] [ppm],"growth of Aureobasidium pullulans in 96-well plates ([1]; well 1, 50.00 ppm active)","growth of Aureobasidium pullulans in 96-well plates ([1]; well 2, 25.00 ppm active)","growth of Aureobasidium pullulans in 96-well plates ([1]; well 3, 12.50 ppm active)","growth of Aureobasidium pullulans in 96-well plates ([1]; well 4, 6.25 ppm active)","growth of Aureobasidium pullulans in 96-well plates ([1]; well 5, 3.13 ppm active)","growth of Aureobasidium pullulans in 96-well plates ([1]; well 6, 1.56 ppm active)","growth of Aureobasidium pullulans in 96-well plates ([1]; well 7, 0.78 ppm active)","growth of Aureobasidium pullulans in 96-well plates ([1]; well 8, 0.39 ppm active)","growth of Aureobasidium pullulans in 96-well plates ([1]; well 9, 0.20 ppm active)","growth of Aureobasidium pullulans in 96-well plates ([1]; well 10, 0.10 ppm active)","growth of Aureobasidium pullulans in 96-well plates ([1]; well 11, 0.05 ppm active)","growth of Aureobasidium pullulans in 96-well plates ([1]; well 12, 0.02 ppm active)",MIC [2] [ppm],"growth of Aspergillus niger in 96-well plates ([2]; well 1, 50.0 ppm active)","growth of Aspergillus niger in 96-well plates ([2]; well 2, 25.0 ppm active)","growth of Aspergillus niger in 96-well plates ([2]; well 3, 12.5 ppm active)","growth of Aspergillus niger in 96-well plates ([2]; well 4, 6.25 ppm active)","growth of Aspergillus niger in 96-well plates ([2]; well 5, 3.13 ppm active)","growth of Aspergillus niger in 96-well plates ([2]; well 6, 1.56 ppm active)",further results
"CCCCNC(=O)OCC#CI [IPBC, 3-iodo-2-propynyl butyl carbamate]",25.00,−,−,+,+,+,+,+,+,+,+,+,+,0.78,−,−,−,−,−,−,"growth of Aspergillus niger in 96-well plates ([2]; well 7, 0.78 ppm active): −; growth of Aspergillus niger in 96-well plates ([2]; well 8, 0.39 ppm active): +; growth of Aspergillus niger in 96-well plates ([2]; well 9, 0.20 ppm active): +; growth of Aspergillus niger in 96-well plates ([2]; well 10, 0.10 ppm active): +; growth of Aspergillus niger in 96-well plates ([2]; well 11, 0.05 ppm active): +; growth of Aspergillus niger in 96-well plates ([2]; well 12, 0.02 ppm active): +; MIC [3]: 6.25 ppm; growth of Trichoderma pseudokoningii in 96-well plates ([3]; well 1, 50.00 ppm active): −; growth of Trichoderma pseudokoningii in 96-well plates ([3]; well 2, 25.00 ppm active): −; growth of Trichoderma pseudokoningii in 96-well plates ([3]; well 3, 12.50 ppm active): −; growth of Trichoderma pseudokoningii in 96-well plates ([3]; well 4, 6.25 ppm active): −; growth of Trichoderma pseudokoningii in 96-well plates ([3]; well 5, 3.13 ppm active): +; growth of Trichoderma pseudokoningii in 96-well plates ([3]; well 6, 1.56 ppm active): +; growth of Trichoderma pseudokoningii in 96-well plates ([3]; well 7, 0.78 ppm active): +; growth of Trichoderma pseudokoningii in 96-well plates ([3]; well 8, 0.39 ppm active): +; growth of Trichoderma pseudokoningii in 96-well plates ([3]; well 9, 0.20 ppm active): +; growth of Trichoderma pseudokoningii in 96-well plates ([3]; well 10, 0.10 ppm active): +; growth of Trichoderma pseudokoningii in 96-well plates ([3]; well 11, 0.05 ppm active): +; growth of Trichoderma pseudokoningii in 96-well plates ([3]; well 12, 0.02 ppm active): +"
didecyl bis(hydroxyethyl) ammonium borate [DPAB],12.5,−,−,−,+,+,+,+,+,+,+,+,+,12.50,−,−,−,+,+,+,"growth of Aspergillus niger in 96-well plates ([2]; well 7, 0.78 ppm active): +; growth of Aspergillus niger in 96-well plates ([2]; well 8, 0.39 ppm active): +; growth of Aspergillus niger in 96-well plates ([2]; well 9, 0.20 ppm active): +; growth of Aspergillus niger in 96-well plates ([2]; well 10, 0.10 ppm active): +; growth of Aspergillus niger in 96-well plates ([2]; well 11, 0.05 ppm active): +; growth of Aspergillus niger in 96-well plates ([2]; well 12, 0.02 ppm active): +; MIC [3]: 25.00 ppm; growth of Trichoderma pseudokoningii in 96-well plates ([3]; well 1, 50.00 ppm active): −; growth of Trichoderma pseudokoningii in 96-well plates ([3]; well 2, 25.00 ppm active): −; growth of Trichoderma pseudokoningii in 96-well plates ([3]; well 3, 12.50 ppm active): +; growth of Trichoderma pseudokoningii in 96-well plates ([3]; well 4, 6.25 ppm active): +; growth of Trichoderma pseudokoningii in 96-well plates ([3]; well 5, 3.13 ppm active): +; growth of Trichoderma pseudokoningii in 96-well plates ([3]; well 6, 1.56 ppm active): +; growth of Trichoderma pseudokoningii in 96-well plates ([3]; well 7, 0.78 ppm active): +; growth of Trichoderma pseudokoningii in 96-well plates ([3]; well 8, 0.39 ppm active): +; growth of Trichoderma pseudokoningii in 96-well plates ([3]; well 9, 0.20 ppm active): +; growth of Trichoderma pseudokoningii in 96-well plates ([3]; well 10, 0.10 ppm active): +; growth of Trichoderma pseudokoningii in 96-well plates ([3]; well 11, 0.05 ppm active): +; growth of Trichoderma pseudokoningii in 96-well plates ([3]; well 12, 0.02 ppm active): +"
